One data set deals with HIV-1 NefNL4-3 (Human immunodeficiency virus type 1 group M subtype B, UniProt P03406, A33V/T15A/T51N/V11I). The data set is described as follows: Surface plasmon resonance binding to recombinant full-length Nef (NL4-3). As to conditions: for RU30/RUNef (extent of binding): response units at 30 μM relative to Nef immobilized on the SPR chip; for Nef NL4-3 Binding, SPR 1:1 or 2-site fitting KD1: 1:1 Langmuir fit where the KD2 cell says '1 to 1 fitting', else 2-site fit. (In SPR one partner is held on a chip, and binding of the other changes the refractive index at the surface.)

The next data set has as its system TZM-bl cell line. The class given is cell-based. The settings on record: 1 μM. As for the experimental part: (§1) In particular, the tables show antiretroviral activity as percent inhibition of HIV-1 infectivity at 1 μM. In brief, this assay uses the TZM-bl reporter cell line, which carries a stable copy of the HIV-1 LTR coupled to luciferase. Cells are infected with HIV-1NL4-3 in the presence and absence of each compound, and luciferase activity is measured 48 h later. This assay measures early events in the HIV-1 life cycle, including viral entry, reverse transcription, nuclear entry and integration, and viral transcription. All assays include control cells infected with Nef-defective HIV-1, which replicates at 30-50% of wild-type in this system. Results are normalized to percent inhibition relative to DMSO-treated control cells infected with wild-type HIV-1 (0% inhibition) and DMSO-treated cells infected with Nef-defective HIV-1 (100% of the Nef-dependent effect)—see column 3. In addition, cell viability is measured in the TZM-bl cell line in the presence of each test compound and in the absence of HIV-1 infection, using the Cell Titer Blue cell viability assay (Promega; column 4).

In another data set the test system is HIV-1NL4-3. As to the kind of experiment: HIV-1 infectivity assay in TZM-bl reporter cell line (LTR-luciferase, 48 h). The class given is cell-based. The settings on record: for inhibition at 1 µM: Human immunodeficiency virus 1, TZM-bl. As for the experimental part:
as §1

Setting [1] is: KD, M, Table 4, SPR fit 2-step induced fit, KD = koff/kon × koff2/(koff2 + kon2).
The mark [2] stands for this setting: Nef NL4-3 Binding, SPR 2-state fitting KD, Table 1, 2-step induced-fit model.
[3] abbreviates: Table 4, 2-step induced fit, T = 1/koff2.
Setting [4] is: read-out: Nef NL4-3 Binding, SPR 1:1 or 2-site fitting KD2, Table 1, 2-site fit, second component.
Where [5] appears, read: 1.0 μM, TZM-bl reporter cell line, Table 4, read-out: % Infectivity Inhibition.
The mark [6] stands for this setting: 48 h, Table 1, TZM-bl cells, 1 μM, 48 h, 100% = Nef-defective HIV-1, read-out: HIV-1 Infectivity % Inhibition Norm. to Δ-Nef @ 1 μM.
The mark [7] stands for this setting: KD, M, Table 4, SPR fit 1:1 Langmuir, KD = koff/kon.
Where [8] appears, read: Table 4, 1:1 Langmuir fit, T = 1/koff.

Read-outs that look alike come from different tables or passages of the source.

As to `Oc1c(CCc2ccc(F)cc2)c(-c2cccnc2)nn1-c1nc2ccccc2[nH]1` [Compound I-121, 1-(1H-1,3-benzodiazol-2-yl)-4-[2-(4-fluorophenyl)ethyl]-3-(pyridin-3-yl)-1H-pyrazol-5-ol], the Kd at HIV-1 NefNL4-3 stood at 0.0383 nM; at HIV-1 NefNL4-3 (setting [1]), 474 nM; at HIV-1 NefNL4-3 (setting [2]), 474 nM; at HIV-1 NefNL4-3 (setting [4]), 2610 nM. At HIV-1 NefNL4-3 (setting [3]), the “T, minutes (residence time)” value is 2.58E + 01 minutes. Besides, on HIV-1 NefNL4-3, the “RU30/RUNef (extent of binding)” value was 7.40E- 03. In addition, the “% Cell Viability” value in the data set with TZM-bl cell line (human) came to 97.8%. In addition, the “Percent Viability @ 1 μM (TZM-bl cells)” value in the data set on TZM-bl cell line (human) is 97.8%. Moreover, the inhibition at 1 µM in the data set with HIV-1NL4-3 (setting [5]) and with HIV-1NL4-3 (setting [6]) was 29.6% in each case.
`CC(C)S(=O)(=O)N1CCC(c2nn(-c3nc4ccccc4[nH]3)c(O)c2CCc2ccc(F)cc2)CC1` [Compound I-751, 1-(1H-1,3-benzodiazol-2-yl)-4-[2-(4-fluorophenyl)ethyl]-3-[1-(propane-2-sulfonyl)piperidin-4-yl]-1H-pyrazol-5-ol]: the Kd on HIV-1 NefNL4-3 was found to be 560 nM. In addition, in the data set with TZM-bl cell line (human), the “Percent Viability @ 1 μM (TZM-bl cells)” value is 101.1%. Also, the inhibition – broadly, the relative decrease from the control value, in per cent – at 1 µM in the data set with HIV-1NL4-3 (setting [6]) worked out at 22.3%.
For `CC[C@H](O)C(=O)N1CCC(c2nn(-c3nc4ccccc4[nH]3)c(O)c2CCc2ccc(F)cc2)CC1` [Compound I-733, (2S)-1-{4-[1-(1H-1,3-benzodiazol-2-yl)-4-[2-(4-fluorophenyl)ethyl]-5-hydroxy-1H-pyrazol-3-yl]piperidin-1-yl}-2-hydroxybutan-1-one], in that order: 26900 nM, 98.8% and 56.5%.
For “2-{4-[1-(1H-1,3-benzodiazol-2-yl)-4-[2-(4-fluorophenyl)ethyl]-5-hydroxy-1H-pyrazol-3-yl]piperidine-1-carbonyl}benzene-1,3,5-triol [Compound I-729]”, the “Nef NL4-3 Binding, SPR 1:1 or 2-site fitting KD1” value at HIV-1 NefNL4-3 (Table 1) is recorded as “No Interaction”. Besides, the “Percent Viability @ 1 μM (TZM-bl cells)” value in the data set with TZM-bl cell line (Table 1, uninfected TZM-bl cells, Cell Titer Blue) was 102.4%. In addition, the “HIV-1 Infectivity % Inhibition Norm. to Δ-Nef @ 1 μM” value in the data set with HIV-1NL4-3 (Table 1, TZM-bl cells, 1 μM, 48 h, 100% = Nef-defective HIV-1) is 57.2%.
`CC(=O)N1CCC(Cc2nn(-c3nc4ccccc4[nH]3)c(O)c2CCc2ccc(F)cc2)CC1` [Compound I-772, 1-(4-{[1-(1H-1,3-benzodiazol-2-yl)-4-[2-(4-fluorophenyl)ethyl]-5-hydroxy-1H-pyrazol-3-yl]methyl}piperidin-1-yl)ethan-1-one]: the Kd at HIV-1 NefNL4-3 was 858 nM. For the same compound, in the data set on TZM-bl cell line (human), the “Percent Viability @ 1 μM (TZM-bl cells)” value is recorded as 100.1%. For the same compound, the inhibition at 1 µM in the data set with HIV-1NL4-3 (setting [6]) was 49.6%.
With `Oc1c(CC2CCOCC2)c(-c2cccc(F)c2)nn1-c1nc2ccccc2[nH]1` [Compound I-184, 1-(1H-1,3-benzodiazol-2-yl)-3-(3-fluorophenyl)-4-[(oxan-4-yl)methyl]-1H-pyrazol-5-ol], on HIV-1 NefNL4-3 (setting [7]), the Kd amounted to 3520 nM. In addition, the “T, minutes (residence time)” value at HIV-1 NefNL4-3 (setting [8]) came to 6.46E + 00 minutes. In addition, on HIV-1 NefNL4-3, the “RU30/RUNef (extent of binding)” value was determined as 2.48E- 03. Moreover, in the data set on TZM-bl cell line (human), the “% Cell Viability” value is 100%. The inhibition at 1 µM with HIV-1NL4-3 (setting [5]) was determined as 100%.
Take `CS(=O)(=O)N1CCC(CCc2c(-c3ccc(C(F)(F)F)cn3)nn(-c3nc4cc(Br)ccc4[nH]3)c2O)CC1` [Compound I-775, 1-(5-bromo-1H-1,3-benzodiazol-2-yl)-4-[2-(1-methanesulfonylpiperidin-4-yl)ethyl]-3-[5-(trifluoromethyl)pyridin-2-yl]-1H-pyrazol-5-ol]: on HIV-1 NefNL4-3, the Kd stood at 316 nM and the “RU30/RUNef (extent of binding)” value amounted to 1.62E- 03. Besides, the Kd at HIV-1 NefNL4-3 (setting [7]) was 316 nM. Further, on HIV-1 NefNL4-3 (setting [8]), the “T, minutes (residence time)” value was determined as 4.26E + 01 minutes. Besides, in the data set on TZM-bl cell line (human), the “% Cell Viability” value is 72.9% and the “Percent Viability @ 1 μM (TZM-bl cells)” value came to 72.9%. In the data set with HIV-1NL4-3 (setting [5]), the inhibition at 1 µM amounted to 62.1%. Further, the inhibition at 1 µM in the data set with HIV-1NL4-3 (setting [6]) was determined as 62.1%.
Turning to `COC(=O)N1CCC(CCc2c(-c3ccc(C(F)(F)F)cn3)nn(-c3nc4cc(Br)ccc4[nH]3)c2O)CC1` [Compound I-708, methyl 4-{2-[1-(5-bromo-1H-1,3-benzodiazol-2-yl)-5-hydroxy-3-[5-(trifluoromethyl)pyridin-2-yl]-1H-pyrazol-4-yl]ethyl}piperidine-1-carboxylate], on HIV-1 NefNL4-3, the Kd came to 1.4 nM and the “RU30/RUNef (extent of binding)” value stood at 2.04E- 03. In addition, the Kd on HIV-1 NefNL4-3 (setting [7]) was 1.4 nM. The “T, minutes (residence time)” value on HIV-1 NefNL4-3 (setting [8]) came to 1.00E + 04 minutes. Moreover, in the data set with TZM-bl cell line (human), the “% Cell Viability” value amounted to 77.8% and the “Percent Viability @ 1 μM (TZM-bl cells)” value was found to be 77.8%. In addition, the inhibition at 1 µM with HIV-1NL4-3 (setting [5]) was 100%. Also, in the data set with HIV-1NL4-3 (setting [6]), the inhibition at 1 µM came out at 117%.
For the compound `O=C1NC(=O)C(CC(=O)N2CCC(c3nn(-c4nc5ccccc5[nH]4)c(O)c3CCc3ccc(F)cc3)CC2)N1` (stereo not shown) [Compound I-738, 5-(2-{4-[1-(1H-1,3-benzodiazol-2-yl)-4-[2-(4-fluorophenyl)ethyl]-5-hydroxy-1H-pyrazol-3-yl]piperidin-1-yl}-2-oxoethyl)imidazolidine-2,4-dione], on HIV-1 NefNL4-3 (Table 1), the “Nef NL4-3 Binding, SPR 1:1 or 2-site fitting KD1” value is “No Interaction”. Also, in the data set on TZM-bl cell line (human), the “Percent Viability @ 1 μM (TZM-bl cells)” value was found to be 100.4%. Besides, the inhibition at 1 µM in the data set with HIV-1NL4-3 (setting [6]) was -9.9%.
Take `Oc1c(CCc2ccc(F)cc2)c(-c2ccccc2)nn1-c1nc2cc(Cl)ccc2[nH]1` [Compound I-165, 1-(5-chloro-1H-1,3-benzodiazol-2-yl)-4-[2-(4-fluorophenyl)ethyl]-3-phenyl-1H-pyrazol-5-ol]: the Kd on HIV-1 NefNL4-3 came to 689 nM; on HIV-1 NefNL4-3 (setting [1]) it was 636 nM; on HIV-1 NefNL4-3 (setting [2]) it was 636 nM. Further, the “T, minutes (residence time)” value on HIV-1 NefNL4-3 (setting [3]) was found to be 5.10E + 00 minutes. Further, at HIV-1 NefNL4-3, the “RU30/RUNef (extent of binding)” value was 4.14E- 02. Besides, in the data set with TZM-bl cell line (human), the “% Cell Viability” value was found to be 89.6%. The “Percent Viability @ 1 μM (TZM-bl cells)” value in the data set with TZM-bl cell line (human) is recorded as 89.6%. For the same compound, the inhibition at 1 µM in the data set with HIV-1NL4-3 (setting [5]) and in the data set with HIV-1NL4-3 (setting [6]) was 25.3% each time.
For `CC(=O)N1CCC(c2nn(-c3nc4ccccc4[nH]3)c(O)c2Cc2ccc(F)c(F)c2)CC1` [Compound I-744, 1-{4-[1-(1H-1,3-benzodiazol-2-yl)-4-[(3,4-difluorophenyl)methyl]-5-hydroxy-1H-pyrazol-3-yl]piperidin-1-yl}ethan-1-one], the Kd on HIV-1 NefNL4-3 is 23.5 nM; on HIV-1 NefNL4-3 (setting [1]), 1950 nM; on HIV-1 NefNL4-3 (setting [2]) it was 1950 nM; at HIV-1 NefNL4-3 (setting [4]) it was 7280 nM. The “T, minutes (residence time)” value on HIV-1 NefNL4-3 (setting [3]) was 5.61E + 00 minutes. The “RU30/RUNef (extent of binding)” value at HIV-1 NefNL4-3 is 4.92E- 03. Also, in the data set with TZM-bl cell line (human), the “% Cell Viability” value was determined as 98.2%. The “Percent Viability @ 1 μM (TZM-bl cells)” value in the data set on TZM-bl cell line (human) is given as 98.2%. Also, the inhibition at 1 µM with HIV-1NL4-3 (setting [5]) and with HIV-1NL4-3 (setting [6]) was 51.2% throughout.
On to `Oc1c(CC2CCNCC2)c(-c2ccc(C(F)(F)F)cc2)nn1-c1nc2ccccc2[nH]1` [Compound I-504, 1-(1H-1,3-benzodiazol-2-yl)-4-[(piperidin-4-yl)methyl]-3-[4-(trifluoromethyl)phenyl]-1H-pyrazol-5-ol], for which the Kd at HIV-1 NefNL4-3 was found to be 10600 nM. For the same compound, the “Percent Viability @ 1 μM (TZM-bl cells)” value in the data set with TZM-bl cell line (human) came out at 101.3%. Also, the inhibition at 1 µM in the data set with HIV-1NL4-3 (setting [6]) is -43.7%.
`Oc1c(CC2CCOCC2)c(-c2ccc(F)cc2)nn1-c1nc2cccnc2[nH]1` [Compound I-313, 3-(4-fluorophenyl)-1-{3H-imidazo[4,5-b]pyridin-2-yl}-4-[(oxan-4-yl)methyl]-1H-pyrazol-5-ol]: at HIV-1 NefNL4-3, the Kd turned out to be 480 nM and the “RU30/RUNef (extent of binding)” value is 5.15E- 03. The Kd at HIV-1 NefNL4-3 (setting [7]) came out at 480 nM. Further, the “T, minutes (residence time)” value on HIV-1 NefNL4-3 (setting [8]) amounted to 2.92E + 01 minutes. In the data set with TZM-bl cell line (human), the “% Cell Viability” value turned out to be 96.7% and the “Percent Viability @ 1 μM (TZM-bl cells)” value was found to be 96.7%. Further, the inhibition at 1 µM in the data set on HIV-1NL4-3 (setting [5]) was determined as 33.2%. Moreover, the inhibition at 1 µM in the data set with HIV-1NL4-3 (setting [6]) was 33.2%.
